This test concerns the target T1, cIAP2-BIR3 (Homo sapiens, UniProt Q13489).
T1 construct: gene BIRC3; BIR3 domain, residues 245-357 as printed (jointly with cIAP1), C-terminal 6xHis-tag, pET21(b), E. coli BL21(DE3)
Nature of the test: fluorescence polarization displacement of fluorescent probe FITC-SMAC. Particulars: read-out: Fluorescence Binding Assays IC50 [nM] / cIAP2-BIR3. The source says:
fluorescence polarization displacement of fluorescent probe FITC-SMAC on cIAP2-BIR3

T1 sequence (Q13489 245-357): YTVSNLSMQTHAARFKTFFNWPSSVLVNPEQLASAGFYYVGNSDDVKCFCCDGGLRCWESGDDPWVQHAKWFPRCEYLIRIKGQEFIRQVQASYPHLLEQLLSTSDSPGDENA

Regarding `CC[C@H](NC)C(=O)N[C@@H]1C(=O)N2[C@@H](CC[C@@H]1CO)CC[C@H]2C(=O)N[C@@H](c1ccccc1)c1cn(CCCCc2ccc(CCCCn3cc([C@@H](NC(=O)[C@@H]4CC[C@@H]5CC[C@H](CO)[C@H](NC(=O)[C@H](CC)NC)C(=O)N54)c4ccccc4)nn3)cc2)nn1` [9a], the IC50 amounted to 1.9 ± 0.9 nM.

Source of the values: PMC3499469, “Structural Insight into Inhibitor of Apoptosis Proteins Recognition by a Potent Divalent Smac-Mimetic” (PLoS ONE, 2012).
